According to the RepoRT retention time repository (doi:10.1016/j.aca.2012.07.013):

Test: RP, 50 × 2.1 mm, 1.7 µm, 0.5 mL/min, estimated dead time 0.22 min; A: 98% water + 2% acetonitrile + 0.1% formic acid, pH 3; B: 2% water + 98% acetonitrile + 0.1% formic acid, pH 3; gradient (min/%B) 0/0 0.5/0 4/60 8/100 9/100 9.2/0 10/0
Conditions: stereoisomer not certain

Compound	LC retention time
CCCCCCCCCCCCCCCCC(=O)OCC(O)COP(=O)([O-])OCC[N+](C)(C)C (configuration not stated) [LPC (17:0)]	5.3 min
c1ccc(CSSCc2ccccc2)cc1 [dibenzyl disulfide]	2.39 min
CCCCCC=CCC=CCC=CCC=CCCCC(=O)OC(CO)COP(=O)(O)OCCN (configuration not stated) [LPE (0:0/20:4(5Z,8Z,11Z,14Z)]	4.74 min
Oc1ccc(C(c2ccc(O)cc2)(C(F)(F)F)C(F)(F)F)cc1 [bisphenol AF]	0.397 min
CC(CCC(=O)NCC(=O)O)C1CCC2C3C(O)CC4CC(O)CCC4(C)C3CCC12C (configuration not stated) [glycochenodeoxycholic acid (GCDCA)]	3.78 min
CCCCCC=CCC=CCC=CCCCCCCC(=O)OCC(O)COP(=O)(O)OCCN (configuration not stated) [LPE (20:3)]	4.71 min
O=c1cc2oc3ccccc3oc-2cc1=O [dibenzo[1,4]dioxin-2,3-dione]	2.57 min
CCC=CCC=CCC=CCC=CCC=CCC=CCCC(=O)OC(CO)COP(=O)(O)OCCN (configuration not stated) [LPE (0:0/22:6(4Z,7Z,10Z,13Z,16Z,19Z))]	4.71 min
CCCCCCCCCCCCCCCCCC(=O)OCC(O)COP(=O)([O-])OCC[N+](C)(C)C (configuration not stated) [LPC (18:0)]	5.64 min
CC(CCC(=O)NCC(=O)O)C1CCC2C3C(O)CC4CC(OS(=O)(=O)O)CCC4(C)C3CCC12C (configuration not stated) [glycochenodeoxycholate-3-sulfate]	3.38 min
CC(CCC(=O)NCCS(=O)(=O)O)C1CCC2C3C(O)CC4CC(O)CCC4(C)C3CCC12C (configuration not stated) [taurochenodeoxycholic acid (TCDCA)]	3.45 min
CCC=CCC=CCC=CCC=CCCCCCCC(=O)OCC(O)COP(=O)(O)OCCN (configuration not stated) [LPE (20:4(8Z,11Z,14Z,17Z)/0:0)]	4.74 min
CCC=CCC=CCC=CCC=CCC=CCC=CCCC(=O)OCC(O)COP(=O)([O-])OCC[N+](C)(C)C (configuration not stated) [LPC (22:6)]	4.72 min
CCCCCCCCCCCCCCCC(=O)OCC(O)COP(=O)([O-])OCC[N+](C)(C)C (configuration not stated) [LPC (16:0)]	4.98 min
CC(CCC(=O)NCCS(=O)(=O)O)C1CCC2C3C(O)CC4CC(O)CCC4(C)C3CC(O)C12C (configuration not stated) [taurocholic acid (TCA)]	3.08 min
CC(CCC(=O)NCC(=O)O)C1CCC2C3C(O)CC4CC(O)CCC4(C)C3CC(O)C12C (configuration not stated) [glycocholic acid (GCA)]	3.36 min
CCC=CCC=CCC=CCC=CCCCCCCC(=O)OC(CO)COP(=O)(O)OCCN (configuration not stated) [LPE (0:0/20:4(8Z,11Z,14Z,17Z))]	4.74 min
Nc1ccc(C(F)(F)F)cc1 [4-trifluoro methylaniline]	0.383 min
CCCCCCCCCCCCCCC(=O)OCC(O)COP(=O)([O-])OCC[N+](C)(C)C (configuration not stated) [LPC (15:0)]	4.67 min
CCCCCCCCCCCCCC=CC(O)C([NH3+])COP(=O)([O-])O (configuration not stated) [sphingosine 1-phosphate]	4.36 min
CC(CCC(=O)NCC(=O)O)C1CCC2C3CCC4CC(O)CCC4(C)C3CC(O)C12C (configuration not stated) [glycodeoxycholic acid (GDCA)]	3.78 min
CCCCCCCCCCCCCCCCCCOCC(O)COP(=O)(O)OCC(N)C(=O)O (configuration not stated) [PS (O-18:0/0:0)]	4.52 min
